We go through 2 molecules from patent US20190008920A1, “OPHTHALMIC COMPOSITIONS AND METHODS OF USE” (Ocugen, Inc., priority 2017, published 2019).

For data set [1] the following is noted: ophthalmic solution 5.0%, administered twice daily; cited from earlier work.
For data set [2] the following is noted: brimonidine tartrate + cyclosporine nanoemulsion formulation. Here is the method:
The partitioning of active pharmaceutical ingredients in oil and aqueous phases of these exemplary nanoemulsion formulations were determined using RP-HPLC methods. […] In nanoemulsion formulation, oil and aqueous phase were separated using ultrafiltration unit by centrifugation process. Quantity of APIs in these oil and aqueous phase was quantified using HPLC method.

In the case of `CS(=O)(=O)c1cccc(C[C@H](NC(=O)c2c(Cl)cc3c(c2Cl)CCN(C(=O)c2ccc4ccoc4c2)C3)C(=O)O)c1` [Lifitegrast, N-{[2-(1-Benzofuran-6-ylcarbonyl)-5,7-dichloro-1,2,3,4-tetrahydro-6-isoquinolinyl]carbonyl}-3-(methylsulfonyl)-L-phenylalanine], the “symptoms of ocular discomfort and eye dryness compared with placebo” value in data set [1] is “improve symptoms of ocular discomfort and eye dryness”.

Regarding `Brc1c(NC2=NCCN2)ccc2nccnc12` [brimonidine, 5-Bromo-N-(4,5-dihydro-1H-imidazol-2-yl) quinoxalin-6-amine], the “fraction of API partitioned in aqueous phase” value in data set [2] (aqueous phase) is ~70%. Also, the “fraction of API partitioned in oil phase” value in data set [2] (oil phase) is given as ~30%.
